Measurements reported in patent US6500853B1, “Inhibitors of phospholipase enzymes” (Genetics Institute, LLC, priority 1998, dated 2002).
Several values for one entry are separate records, joined by “and”; a condition that tells them apart may be missing. Identical values can stand only once. Like-named read-outs stand apart in the source and are kept apart here.

Columns and labels:
[1] = molecular target: T1, cPLA2 (Homo sapiens, UniProt P47712); test: Coumarin Assay (cPLA2 inhibition); type: biochemical; conditions: for inhibition at 19 µM: CONCENTRATION 19 micromolar; for inhibition at 100 µM: CONCENTRATION 100 micromolar
T1 sequence (P47712 1-749): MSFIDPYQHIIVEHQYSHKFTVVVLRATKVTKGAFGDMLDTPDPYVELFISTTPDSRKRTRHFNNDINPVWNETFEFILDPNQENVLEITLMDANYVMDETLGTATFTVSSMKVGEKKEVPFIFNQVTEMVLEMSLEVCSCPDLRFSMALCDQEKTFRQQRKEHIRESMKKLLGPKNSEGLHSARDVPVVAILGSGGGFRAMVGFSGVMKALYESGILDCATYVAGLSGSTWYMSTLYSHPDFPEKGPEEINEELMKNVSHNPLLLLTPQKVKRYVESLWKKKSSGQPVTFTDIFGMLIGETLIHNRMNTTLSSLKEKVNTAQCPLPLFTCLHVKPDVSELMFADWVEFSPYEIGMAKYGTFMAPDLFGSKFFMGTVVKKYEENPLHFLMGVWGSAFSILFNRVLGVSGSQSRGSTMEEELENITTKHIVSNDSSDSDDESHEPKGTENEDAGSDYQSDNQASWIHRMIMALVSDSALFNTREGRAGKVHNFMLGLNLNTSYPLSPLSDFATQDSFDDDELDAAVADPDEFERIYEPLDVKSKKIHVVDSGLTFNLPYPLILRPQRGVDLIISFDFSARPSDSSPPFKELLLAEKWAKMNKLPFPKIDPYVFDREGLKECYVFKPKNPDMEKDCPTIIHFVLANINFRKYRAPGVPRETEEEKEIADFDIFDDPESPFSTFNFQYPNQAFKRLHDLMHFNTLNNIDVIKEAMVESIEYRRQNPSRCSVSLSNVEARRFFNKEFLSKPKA
How it was run: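 Percent inhibition at the stated concentration, from the rate of 460 nm emission rise (360 nm excitation) per minute. Reaction started by adding 4 μg enzyme to compound and 60 μM 7-hydroxycoumarinyl 6-heptenoate in Hepes buffer pH 7.5 with 1 mM EDTA.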

[2] = system: Rat Carrageenan-Induced Footpad Edema; test: Rat Carrageenan-Induced Footpad Edema Test; type: in vivo, male Sprague Dawley rats; conditions: footpad volume 3 hours after carrageenan
[3] = Rattus norvegicus, iv, 3 h, IV, 5 mg/Kg, read-out: PERCENT INHIBITION

“4-({5-[(cyclopentylcarbonyl)amino]-1-[phenyl(2-pyridinyl)methyl]-1H-indol-3-yl}methyl)-3-methoxybenzoic acid [Example 44]” was tested, and the “PERCENT INHIBITION @” value ([1]; CONCENTRATION 1.65 micromolar) was 50%, the “PERCENT INHIBITION @” value ([1]; CONCENTRATION 1.7 micromolar) was 50% and the “PERCENT INHIBITION @” value ([1]; CONCENTRATION 1.75 micromolar) was 50%. The “PERCENT INHIBITION @” value ([1]; CONCENTRATION 1.9 micromolar) was 50%, the “PERCENT INHIBITION @” value ([1]; CONCENTRATION 2.1 micromolar) was 50% and the “PERCENT INHIBITION @” value ([1]; CONCENTRATION 2.5 micromolar) was 71%. The “PERCENT INHIBITION @” value ([1]; CONCENTRATION 6.25 micromolar) was 97% and the “PERCENT INHIBITION” value ([2]; IV, 5 mg/Kg) was 11.9%.
In the case of “4-[(1-benzhydryl-5-nitro-1H-indol-3-yl)methyl]3-methoxybenzoic acid [Example 12]”, the “PERCENT INHIBITION @” value ([1]; CONCENTRATION 0.35 micromolar) is reported as 50%, the “PERCENT INHIBITION @” value ([1]; CONCENTRATION 0.38 micromolar) is reported as 50% and the “PERCENT INHIBITION @” value ([1]; CONCENTRATION 0.39 micromolar) is reported as 50%. The “PERCENT INHIBITION @” value ([1]; CONCENTRATION 0.4 micromolar) was 50%, the “PERCENT INHIBITION @” value ([1]; CONCENTRATION 0.44 micromolar) was 50% and the “PERCENT INHIBITION @” value ([1]; CONCENTRATION 0.45 micromolar) was 50%. For the same compound, the “PERCENT INHIBITION @” value ([1]; CONCENTRATION 0.5 micromolar) was 64%, the “PERCENT INHIBITION @” value ([1]; CONCENTRATION 1.25 micromolar) was 86% and the “PERCENT INHIBITION” value ([2]; PO, 2 mg/Kg) was 0.19%. The “PERCENT INHIBITION” value ([2]; PO, 10 mg/Kg) was −0.38%.
In the case of “4-[(1-benzhydryl-5-{[(dimethylamino)sulfonyl]amino}-1H-indol-3-yl)methyl]-3- [Example 92]”, the “PERCENT INHIBITION @” value ([1]; CONCENTRATION 11 micromolar) is reported as 50%, the “PERCENT INHIBITION @” value ([1]; CONCENTRATION 12.5 micromolar) is reported as 50% and the “PERCENT INHIBITION @” value ([1]; CONCENTRATION 14.2 micromolar) is reported as 50%. For the same compound, the “PERCENT INHIBITION” value ([2]; PO, 2 mg/Kg) was 27.36% and the “PERCENT INHIBITION” value ([2]; PO, 10 mg/Kg) was 21.34%.
`CCCn1cc(Cc2ccc(C(=O)NS(=O)(=O)c3ccccc3C)cc2OC)c2cc(NC(=O)OC3CCCC3)ccc21` [Example 2, Cyclopentyl N-{3-[2-methoxy-4-({[(2-methylphenyl)sulfonyl]amino}carbonyl)benzyl]-1-propyl-1H-indol-5-yl}carbamate] showed an inhibition in vivo at 5 mg/kg [2, 3] of 15.9%.
`COc1cc(C(=O)O)ccc1Cc1cn(C(c2ccccc2)c2ccccc2)c2ccc(NC(=O)OC3CCCC3)cc12` [Example 3, 4-[(1-benzhydryl-5-{[(cyclopentyloxy)carbonyl]amino}1H-indol-3-yl)methyl]-3-methoxybenzoic acid] gave an inhibition at 5 µM ([1]; CONCENTRATION 5 micromolar, read-out: PERCENT INHIBITION @) of 50%, an inhibition at 6.25 µM ([1]; CONCENTRATION 6.25 micromolar, read-out: PERCENT INHIBITION @) of 51% and an inhibition at 6.4 µM ([1]; CONCENTRATION 6.4 micromolar, read-out: PERCENT INHIBITION @) of 50%. The inhibition at 10 µM ([1]; CONCENTRATION 10 micromolar, read-out: PERCENT INHIBITION @) was 41%, the inhibition at 17.5 µM ([1]; CONCENTRATION 17.5 micromolar, read-out: PERCENT INHIBITION @) was 50% and the inhibition at 19 µM ([1]; read-out: PERCENT INHIBITION @) was 50%. For the same compound, the “PERCENT INHIBITION @” value ([1]; CONCENTRATION 20 micromolar) was 38% and 43% and 44%, the inhibition at 20 µM ([1]; CONCENTRATION 20 micromolar, read-out: PERCENT INHIBITION @) was 37% and the inhibition at 22 µM ([1]; CONCENTRATION 22 micromolar, read-out: PERCENT INHIBITION @) was 50%. It also gave an inhibition at 23 µM ([1]; CONCENTRATION 23 micromolar, read-out: PERCENT INHIBITION @) of 50%, an inhibition at 23.5 µM ([1]; CONCENTRATION 23.5 micromolar, read-out: PERCENT INHIBITION @) of 50% and an inhibition at 24 µM ([1]; CONCENTRATION 24 micromolar, read-out: PERCENT INHIBITION @) of 50%. It also gave an inhibition at 100 µM ([1]; read-out: PERCENT INHIBITION @) of 39%, an inhibition in vivo at 5 mg/kg ([2]; Rattus norvegicus, po, 3 h, PO, 5 mg/Kg, read-out: PERCENT INHIBITION) of 21.5% and an inhibition in vivo at 20 mg/kg ([2]; Rattus norvegicus, po, 3 h, PO-, 20 mg/Kg, read-out: PERCENT INHIBITION) of 19.6%.
With `COc1cc(C(=O)O)ccc1Cc1cn(C(C)C)c2ccc(NC(=O)OC3CCCC3)cc12` [Example 7, 4-[(5-{[(cylopentyloxy)carbonyl]amino}-1-isopropyl-1H-indol-3yl)methyl]-3-methoxybenzoic acid] the “PERCENT INHIBITION @” value ([1]; CONCENTRATION 50 micromolar) was 11%, the “PERCENT INHIBITION @” value ([1]; CONCENTRATION 235 micromolar) was 50% and the “PERCENT INHIBITION” value ([2]; IV, 5 mg/Kg) was −0.65%.
For `COc1cc(C(=O)O)ccc1Cc1cn(C2CCCC2)c2ccc(NC(=O)OC3CCCC3)cc12` [Example 8, 4-[(1-cyclopentyl-5-{[(cyclopentyloxy)carbonyl]amino}-1H-indol-3-yl)methyl]-3-methoxybenzoicacid], the inhibition at 65 µM ([1]; CONCENTRATION 65 micromolar, read-out: PERCENT INHIBITION @) was 50%, the inhibition at 100 µM ([1]; read-out: PERCENT INHIBITION @) was 44% and the inhibition in vivo at 5 mg/kg [2, 3] was -5.7%.
Compound `CCCCNC(=O)Nc1ccc2c(c1)c(Cc1ccc(C(=O)O)cc1OC)cn2C(c1ccccc1)c1ccccc1` [Example 9, 4[(1-benzhydryl-5-{[(butylamino)carbonyl]amino}-1H-indol-3-yl)methyl]3-methoxybenzoic acid] has an inhibition at 13 µM ([1]; CONCENTRATION 13 micromolar, read-out: PERCENT INHIBITION @) of 50%, an inhibition at 19 µM ([1]; read-out: PERCENT INHIBITION @) of 50% and an inhibition in vivo at 5 mg/kg [2, 3] of 4.46%.
`O=C(O)c1ccc(OCCc2c(COCc3ccc(F)cc3F)n(C(c3ccccc3)c3ccccc3)c3ccc(Cl)cc23)cc1` [Example 162, 4-[2-(1-benzhydryl-5-chloro-2{[(2,4-difluorobenzyl)oxy]methyl}-1H-indol-3-yl)ethoxy]benzoic acid] showed an inhibition at 1.5 µM ([1]; Conc 1.5 uM, read-out: % Inhibition) of 50%.
For `N#Cc1ccc(COCc2c(CCOc3ccc(C(=O)O)cc3)c3cc(Cl)ccc3n2C(c2ccccc2)c2ccccc2)cc1` [Example 163, 4-[2-(1-benzhydryl-5-chloro-2{[(4-cynobenzyl)oxy]methyl}-1H-indol-3-yl)ethoxy]benzoic acid], the “% Inhibition” value ([1]; Conc 1.25 uM) was 50%.
`O=C(O)c1ccc(OCCc2c(COC/C=C/c3ccccc3)n(C(c3ccccc3)c3ccccc3)c3ccc(Cl)cc23)cc1` [Example 164, 4-{2-[1-benzhydryl-5-chloro-2-({[(E)-3-phenyl-2-propenyl]oxy}methyl)-1H -indol-3-yl)ethoxy]benzoic acid] was tested, and the inhibition at 3.5 µM ([1]; Conc 3.5 uM, read-out: % Inhibition) was 50%.
`O=C(O)CCc1ccc(OCCc2c(COCc3ccc(F)cc3)n(C(c3ccccc3)c3ccccc3)c3ccc(Cl)cc23)cc1` [Example 165, 3-{4-[2-(1-benzhydryl-5-chloro-2-{[(4-fluorobenzyl)oxy]methyl}-1H-indol-3-yl)ethoxy]phenyl}propanoic acid] was tested, and the inhibition at 0.8 µM ([1]; Conc 0.8 uM, read-out: % Inhibition) was 50%.
`O=C(O)CCc1ccc(OCCc2c(CO)n(C(c3ccccc3)c3ccccc3)c3ccc(Cl)cc23)cc1` [Example 167, 3-(4-{2-[1-benzhydryl-5-chloro-2-(hydroxymethyl)-1H-indol-3-yl]ethoxy}phenyl)propanoic acid] gave an inhibition at 1.3 µM ([1]; Conc 1.3 uM, read-out: % Inhibition) of 50%.
`O=C(O)CCc1ccc(S(=O)(=O)CCc2c(CO)n(C(c3ccccc3)c3ccccc3)c3ccc(Cl)cc23)cc1` [Example 168, 3-[4-({2-[1-benzhydryl-5-chloro-2-(hydroxymethyl)-1H-indol-3-yl]ethyl}sulfonyl)phenyl]propanoic acid] was tested, and the inhibition at 2.4 µM ([1]; Conc 2.4 uM, read-out: % Inhibition) was 50%.
With `Cc1c(CCS(=O)(=O)c2ccc(CCC(=O)O)cc2)c2cc(Cl)ccc2n1C(c1ccccc1)c1ccccc1` [Example 169, 3-(4-{[2-(1-Benzhydryl-5-chloro-2-methyl-1H-indol-3-yl)ethyl]sulfonyl}phenyl)propanoic acid] the inhibition at 0.45 µM ([1]; Conc 0.45 uM, read-out: % Inhibition) was 50%.
`Cc1c(CCSc2ccc(CCC(=O)O)cc2)c2cc(Cl)ccc2n1C(c1ccccc1)c1ccccc1` [Example 170, 3-(4 {[2-(1-benzhydryl-5-chloro-2-methyl-1H-indol-3-yl)ethyl]sulfanyl}phenyl)propanoic acid] was tested, and the inhibition at 0.5 µM ([1]; Conc 0.5 uM, read-out: % Inhibition) was 50%.
With `Cc1c(CCOc2ccc(CCC(=O)O)cc2)c2cc(Cl)ccc2n1C(c1ccccc1)c1ccccc1` [Example 171, 3-{4-[2-(1-Benzhydryl-5-chloro-2-methyl-1H-indol-3-yl)ethoxy]phenyl}propanoic acid (10)] the “% Inhibition” value ([1]; Conc 0.4 uM) was 50%.
